Tested on: 883617-216-R-J1-PDC complex spheroid viability
Assay: Anticancer human tumor 883617-216-R-J1-PDC patient-derived bladder carcinoma cell line growth inhibition
Settings: for IC50: curve of first compound; for viability, T/C: stronger effect = lower value
Excerpt: Multicellular complex tumor spheroid response to LSD1 Inhibitor Iadademstat in combination with a variety of drugs and investigational agents in selected tumor cell lines
The current study was undertaken to assess response to LSD1 inhibitors in combination with standard-of-care drugs and investigational agents in solid tumor complex spheroid models as well as in the K-562 leukemia. Complex spheroids include a stromal component modeled by human endothelial cells (HUVEC) and fibroblasts modeled by human mesenchymal stem cells (MSCs). The concentration ranges selected for each drug and investigational agent were based upon clinically achievable concentrations if the clinical Cmax of the agent was known.
Compounds. The drugs and investigational agents used in this study are listed on Table 1. All of the agents used, including staurosporine (NSC755774) and gemcitabine (NSC613327), were obtained from the Developmental Therapeutics Program, NCI. FDA-approved anticancer drugs are available from the NCI at http://dtp.nci.nih.gov/branches/dscb/oncology_drugset_explanation.html. Drugs and investigational agents were >95% pure by proton nuclear magnetic resonance (NMR) and liquid chromatography/mass spectrometry (LC/MS). Stock solutions were prepared at 400x in DMSO, stored at -70 degrees C, and diluted in fresh medium prior to their use. The final concentration of DMSO in cell culture wells never exceeded 0.25% (v/v). The FDA-approved anticancer drug set is available from the Developmental Therapeutics Program at https://dtp.cancer.gov/organization/dscb/obtaining/available_plates.htm. All drugs and investigational agents were tested over a range starting from a high concentration at or near the clinical Cmax and decreasing in half-log increments. If the clinical Cmax for an agent had not been determined, the highest concentration tested was 10 microM.
Cell Lines. The patient-derived cancer cell (PDC) lines: 292921-168-R-J2-PDC, K24384-001-R-PDC, and 521955-158-R2-J5-PDC pancreatic carcinomas, 556581-035-R-J1 ovarian carcinoma, 324938-238-R-J1-PDC, 855422-203-R-J1-PDC and 883617-216-R-J1-PDC urothelial bladder carcinomas, 743489-274-T-PDC renal cell carcinoma, 138582-R-J1 Merkel cell tumor, K60290-347-R-J1 and K57222-313-R-J1-PDC glioblastomas, 653999-131-R-J2-PDC, LG0703-F948-PDC, and 349418-098-R-PDC non-small cell lung carcinomas, 885512-296-R-J2-PDC, 171881-019-R-J1-PDC breast carcinomas and 186277-243-T-J2-PDC and 233499-124-R-J2-PDC colon carcinomas were obtained from the NCI Patient-Derived Models Repository (PDMR, https://pdmr.cancer.gov). The established cell lines NCI/ADR-RES (RRID:CVCL_14520 and OVCAR-5 (RRID:CVCL_1628) ovarian carcinomas, 786-O (RRID:CVCL_1051) and A498 (RRID:CVCL_A498) renal cell carcinoma, NCI-H211 (ATCC, cat. CRL-5824; RRID:CVCL_1529), NCI-H196 (ATCC, cat. CRL-5823, RRID:CVCL_1509), SW 1271 (ATCC, cat. CRL-2177, RRID:CVCL_1716) and NCI-H1876 (ATCC, cat. CRL-5902, RRID:CVCL_1503) small cell lung carcinomas, MDA-MB-231 (RRID:CVCL_0062) and MDA-MB-468 (RRID:CVCL_0419)breast carcinomas (10-12). Pooled donor human umbilical vein endothelial cells (HUVEC, Lonza, cat. CC-2519) and human mesenchymal stem cells (hMSC, Lonza, cat. PT-2501) were purchased from Lonza (Walkersville, MD).
Cell Culture. All cells were maintained in an incubator at 37 degrees C and 5% CO2 with 95% humidity. The PDC lines were cultured according to standard operating procedures established by the NCI PDMR (https://pdmr.cancer.gov). Briefly all PDCs were thawed and cultured in Matrigel-coated flasks prepared with a working solution of 1X Ham's F-12 nutrient mix, without supplementation (Invitrogen, Waltham, MA, cat. 11765054), 100 U/mL penicillin-streptomycin (Invitrogen, cat. 15140122), and 2.5% Matrigel (Corning Inc., Corning, NY, cat. 354248) for the first three passages. […]

[1] = second compound 0.1 µM, first compound 0.00949 µM
[2] = second compound 0.1 µM, first compound 0.03 µM
[3] = second compound 0.1 µM, first compound 0.0949 µM
[4] = second compound 0.1 µM, first compound 0.3 µM
[5] = second compound 0.316 µM, first compound 0.00949 µM
[6] = second compound 0.316 µM, first compound 0.03 µM
[7] = second compound 0.316 µM, first compound 0.0949 µM
[8] = second compound 0.316 µM, first compound 0.3 µM
[9] = second compound 1 µM, first compound 0.00949 µM
[10] = second compound 1 µM, first compound 0.03 µM
[11] = second compound 1 µM, first compound 0.0949 µM
[12] = second compound 1 µM, first compound 0.3 µM
[13] = second compound 3.16 µM, first compound 0.00949 µM
[14] = second compound 3.16 µM, first compound 0.03 µM
[15] = second compound 3.16 µM, first compound 0.0949 µM
[16] = second compound 3.16 µM, first compound 0.3 µM
[17] = second compound 10 µM, first compound 0.00949 µM
[18] = second compound 10 µM, first compound 0.03 µM
[19] = second compound 10 µM, first compound 0.0949 µM
[20] = second compound 10 µM, first compound 0.3 µM
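Further: exposure lasted seven days after three days of spheroid growth.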
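Wherever viability, T/C is given: 100% = DMSO vehicle control luminescence.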

## CC[C@@]1(O)C(=O)OCc2c1cc1n(c2=O)Cc2cc3c(CN(C)C)c(O)ccc3nc2-1 + NC1CC1c1ccc(-c2cccc(O)c2)cc1
Second compound 0.1 µM
  IC50: 2.14 nM
Second compound 0.316 µM
  IC50: 2.24 nM
Second compound 1 µM
  IC50: 2.07 nM
Second compound 3.16 µM
  IC50: 1.42 nM
Second compound 10 µM
  IC50: 0.862 nM
Second compound 0.1 µM, first compound 0.000316 µM
  viability, T/C: 97.4%
Second compound 0.1 µM, first compound 0.001 µM
  viability, T/C: 61.4%
Second compound 0.1 µM, first compound 0.00316 µM
  viability, T/C: 45.5%
Second compound 0.1 µM, first compound 0.01 µM
  viability, T/C: 30.5%
Second compound 0.1 µM, first compound 0.0316 µM
  viability, T/C: 24.3%
Second compound 0.1 µM, first compound 0.1 µM
  viability, T/C: 19.4%
Second compound 0.316 µM, first compound 0.000316 µM
  viability, T/C: 94.8%
Second compound 0.316 µM, first compound 0.001 µM
  viability, T/C: 73.4%
Second compound 0.316 µM, first compound 0.00316 µM
  viability, T/C: 37.9%
Second compound 0.316 µM, first compound 0.01 µM
  viability, T/C: 30.4%
Second compound 0.316 µM, first compound 0.0316 µM
  viability, T/C: 22.9%
Second compound 0.316 µM, first compound 0.1 µM
  viability, T/C: 19.1%
Second compound 1 µM, first compound 0.000316 µM
  viability, T/C: 93.7%
Second compound 1 µM, first compound 0.001 µM
  viability, T/C: 71.5%
Second compound 1 µM, first compound 0.00316 µM
  viability, T/C: 36.9%
Second compound 1 µM, first compound 0.01 µM
  viability, T/C: 27.2%
Second compound 1 µM, first compound 0.0316 µM
  viability, T/C: 24.6%
Second compound 1 µM, first compound 0.1 µM
  viability, T/C: 21.2%
Second compound 3.16 µM, first compound 0.000316 µM
  viability, T/C: 93.8%
Second compound 3.16 µM, first compound 0.001 µM
  viability, T/C: 57.6%
Second compound 3.16 µM, first compound 0.00316 µM
  viability, T/C: 32.2%
Second compound 3.16 µM, first compound 0.01 µM
  viability, T/C: 27.9%
Second compound 3.16 µM, first compound 0.0316 µM
  viability, T/C: 24.2%
Second compound 3.16 µM, first compound 0.1 µM
  viability, T/C: 17.9%
Second compound 10 µM, first compound 0.000316 µM
  viability, T/C: 76.1%
Second compound 10 µM, first compound 0.001 µM
  viability, T/C: 42.2%
Second compound 10 µM, first compound 0.00316 µM
  viability, T/C: 35.3%
Second compound 10 µM, first compound 0.01 µM
  viability, T/C: 26.6%
Second compound 10 µM, first compound 0.0316 µM
  viability, T/C: 24.2%
Second compound 10 µM, first compound 0.1 µM
  viability, T/C: 16.9%

## COc1cc(C2c3cc4c(cc3C(OC3OC5COC(C)OC5C(O)C3O)C3COC(=O)C23)OCO4)cc(OC)c1O (stereo not given) + NC1CC1c1ccc(-c2cccc(O)c2)cc1
Second compound 0.1 µM
  IC50: 163 nM
Second compound 0.316 µM
  IC50: 156 nM
Second compound 1 µM
  IC50: 92.8 nM
Second compound 3.16 µM
  IC50: 76.5 nM
Second compound 10 µM
  IC50: 58 nM
[1]
  viability, T/C: 99.3%
[2]
  viability, T/C: 73%
[3]
  viability, T/C: 56.1%
[4]
  viability, T/C: 43.9%
Second compound 0.1 µM, first compound 0.949 µM
  viability, T/C: 35.4%
Second compound 0.1 µM, first compound 3 µM
  viability, T/C: 31.6%
[5]
  viability, T/C: 103%
[6]
  viability, T/C: 79.6%
[7]
  viability, T/C: 55.6%
[8]
  viability, T/C: 41.9%
Second compound 0.316 µM, first compound 0.949 µM
  viability, T/C: 39.8%
Second compound 0.316 µM, first compound 3 µM
  viability, T/C: 34.9%
[9]
  viability, T/C: 106%
[10]
  viability, T/C: 81%
[11]
  viability, T/C: 48.8%
[12]
  viability, T/C: 38.8%
Second compound 1 µM, first compound 0.949 µM
  viability, T/C: 41.3%
Second compound 1 µM, first compound 3 µM
  viability, T/C: 31.4%
[13]
  viability, T/C: 90.6%
[14]
  viability, T/C: 67.7%
[15]
  viability, T/C: 43.7%
[16]
  viability, T/C: 37.7%
Second compound 3.16 µM, first compound 0.949 µM
  viability, T/C: 33.5%
Second compound 3.16 µM, first compound 3 µM
  viability, T/C: 27.9%
[17]
  viability, T/C: 82.4%
[18]
  viability, T/C: 59.5%
[19]
  viability, T/C: 37.4%
[20]
  viability, T/C: 44.5%
Second compound 10 µM, first compound 0.949 µM
  viability, T/C: 31.9%
Second compound 10 µM, first compound 3 µM
  viability, T/C: 28.5%

## Nc1ccn(C2OC(CO)C(O)C2(F)F)c(=O)n1 (stereo not given) + NC1CC1c1ccc(-c2cccc(O)c2)cc1
Second compound 0.1 µM
  IC50: < 0.949 nM
Second compound 0.316 µM
  IC50: < 0.949 nM
Second compound 1 µM
  IC50: < 0.949 nM
Second compound 3.16 µM
  IC50: < 0.949 nM
Second compound 10 µM
  IC50: < 0.949 nM
Second compound 0.1 µM, first compound 0.000949 µM
  viability, T/C: 19.4%
Second compound 0.1 µM, first compound 0.003 µM
  viability, T/C: 23.2%
[1]
  viability, T/C: 21.9%
[2]
  viability, T/C: 22.2%
[3]
  viability, T/C: 23.6%
[4]
  viability, T/C: 24.9%
Second compound 0.316 µM, first compound 0.000949 µM
  viability, T/C: 19.8%
Second compound 0.316 µM, first compound 0.003 µM
  viability, T/C: 20.6%
[5]
  viability, T/C: 22.8%
[6]
  viability, T/C: 21%
[7]
  viability, T/C: 23.2%
[8]
  viability, T/C: 23%
Second compound 1 µM, first compound 0.000949 µM
  viability, T/C: 22%
Second compound 1 µM, first compound 0.003 µM
  viability, T/C: 20.8%
[9]
  viability, T/C: 23.4%
[10]
  viability, T/C: 21.5%
[11]
  viability, T/C: 21.1%
[12]
  viability, T/C: 24.4%
Second compound 3.16 µM, first compound 0.000949 µM
  viability, T/C: 21.9%
Second compound 3.16 µM, first compound 0.003 µM
  viability, T/C: 20.8%
[13]
  viability, T/C: 20.6%
[14]
  viability, T/C: 25.6%
[15]
  viability, T/C: 21%
[16]
  viability, T/C: 20.9%
Second compound 10 µM, first compound 0.000949 µM
  viability, T/C: 29.5%
Second compound 10 µM, first compound 0.003 µM
  viability, T/C: 27.2%
[17]
  viability, T/C: 24.9%
[18]
  viability, T/C: 24.3%
[19]
  viability, T/C: 23.3%
[20]
  viability, T/C: 21.6%
